The values that follow come from patent EP0806963B1, “CARCINOMA TREATMENT” (THE UNIVERSITY OF BIRMINGHAM, priority 1994, dated 1996).

Molecules are shown by their SMILES. pIC50: −log10 of the molar value.

Assay [1] concerns ovarian carcinoma cell line A2780. The assay can be described thus: MTT colorimetric cell growth assay (Mossman), A2780. As to conditions: 48 hour MTT assay. The assay is classed as cell-based, human. An excerpt: (§1) A human ovarian carcinoma cell line A2780 and its cis-platin-resistant derivative 2780CP ( see Masuda et al., Cancer Res., 50, 1863-1866, 1990), an EJ bladder carcinoma cell line (Accession No.85061108, European Collection of Animal Cell Cultures, Porton Down, UK ) and Rat-1 fibroblasts (Lania et al., Virology, 101, 217-232, 1980) were continuously maintained in RPMI 1640 medium (GIBCOBRL, Life technologies Ltd, Paisley, Scotland) supplemented with 10% FCS (foetal calf serum - ICN Flow, Thane, Oxfordshire, England), 2mM glutamine, and the antibiotics, penicillin (1000 U/ml) and streptomycin (1mg/ml) (Sigma Co. Ltd, Poole, Dorset, England) at 37°C in a 5% CO2 atmosphere.
(§2) Inhibition of cell proliferation was evaluated using the colorimetric assay of Mossman (see Mossman, J. Immunol. Meths., 65, 55-63, 1983). […] Various concentrations of G28.5 mAb were then added and their effect on cell growth was evaluated after an appropriate period of time (48, 72 or 96 hrs) by the addition of 20 µl of 5 mg/ml MTT (3-([…])-2,5-diphenyl tetrazolium bromide) obtained from Sigma, in PBS. The cells were further incubated for 5 hrs at 37°C, formazan crystals thus formed were dissolved in DMSO and the optical density (O.D.) was recorded at 550nm on a Becton Dickinson Multiscan. […] After 48 hours, cell growth was assessed using the MTT assay as described above. […]

Assay [2] relates to Rat-1/CD40 CI.8 cell line. The assay can be described thus: MTT colorimetric cell growth assay (Mossman), CD40-transfected Rat-1 fibroblasts. The class given is cell-based.
Source text: as §1, with “atmosphere. […]” for “atmosphere.”
as §2

With `N.N.[Cl][Pt][Cl]` [cis-platin], the cell killing effect in assay [1] (5 µM cis-platin alone) turned out to be 46%; in assay [1] (5 µM cis-platin with 10 µg/ml G28.5 mAb), 61%. Moreover, the pIC50 in assay [2] (cis-platin with 1 µg/ml G28.5 mAb, spread +/- 0.3) is 5.38; in assay [2] (cis-platin without G28.5 mAb, spread +/- 0.9) it was 5.22.
